From ChEMBL document CHEMBL5390265, “Design, Synthesis, and Pharmacological Evaluation of Multisubstituted Pyrido[4,3-d]pyrimidine Analogues Bearing Deuterated Methylene Linkers as Potent KRASG12D Inhibitors” (J Med Chem, 2023)
Each block holds one compound with its values, some of them ahead of it.

Experiments:
[1] = tested on: ASPC1; assay: Antiproliferative activity against human ASPC1 cells harboring […] assessed as inhibition of cell growth incubated for 5 days by crystal violet staining analysis; format: functional, cell-based; settings: Homo sapiens, ASPC1, 120 h
[2] = tested on: AGS; assay: Antiproliferative activity against human AGS cells harboring […] assessed as inhibition of cell growth incubated for 5 days by crystal violet staining analysis; format: functional, cell-based; settings: Homo sapiens, AGS, 120 h
[3] = tested on: A549; assay: Antiproliferative activity against human A549 cells harboring […] assessed as inhibition of cell growth incubated for 5 days by crystal violet staining analysis; format: functional, cell-based; settings: Homo sapiens, A549, 120 h
[4] = tested on: NCI-H1299; assay: Antiproliferative activity against human NCI-H1299 cells harboring KRAS wild type assessed as inhibition of cell growth incubated for 5 days by crystal violet staining analysis; format: functional, cell-based; settings: NCI-H1299, 120 h
[5] = Inhibition of recombinant human His6-tagged KRAS4B G12D mutant incubated for 1 hr by HTRF assay
[6] = biological target: GTPase KRas (Homo sapiens, UniProt P01116); assay: Inhibition of recombinant human GTP-bound KRAS wild type (1 to 169 residues) incubated for 1 hr by HTRF assay
[7] = Half life in Sprague-Dawley rat at 1 mg/kg,iv measured upto 24 hrs by LC-MS/MS analysis; format: ADME, organism-based; settings: in vivo
[8] = AUC in Sprague-Dawley rat at 1 mg/kg,iv measured upto 24 hrs by LC-MS/MS analysis; format: ADME, organism-based; parameters: dose 1 mg/kg, time < 24 hrs, route iv; settings: in vivo
[9] = Clearance in Sprague-Dawley rat at 1 mg/kg,iv measured upto 24 hrs by LC-MS/MS analysis; format: ADME, organism-based; settings: in vivo
[10] = Metabolic stability in rat liver microsomes assessed as half life at 150 uM measured after 60 mins in presence of NADPH by LC-MS/MS analysis; format: ADME, Microsome
[11] = Metabolic stability in monkey liver microsomes assessed as half life at 150 uM measured after 60 mins in presence of NADPH by LC-MS/MS analysis; format: ADME, Macaca mulatta, Microsome; settings: rhesus monkey
[12] = Metabolic stability in dog liver microsomes assessed as half life at 150 uM measured after 60 mins in presence of NADPH by LC-MS/MS analysis; format: ADME, Canis lupus familiaris, Microsome
[13] = Metabolic stability in rat liver microsomes assessed as intrinsic clearance at 150 uM measured after 60 mins in presence of NADPH by LC-MS/MS analysis; format: ADME, Microsome; settings: read-out: CLH
[14] = Metabolic stability in monkey liver microsomes assessed as intrinsic clearance at 150 uM measured after 60 mins in presence of NADPH by LC-MS/MS analysis; format: ADME, Macaca mulatta, Microsome; settings: rhesus monkey, read-out: CLH
[15] = Metabolic stability in dog liver microsomes assessed as intrinsic clearance at 150 uM measured after 60 mins in presence of NADPH by LC-MS/MS analysis; format: ADME, Canis lupus familiaris, Microsome; settings: read-out: CLH
[16] = tested on: ASPC1; assay: Induction of apoptosis in human ASPC1 cells harboring […] assessed as early apoptotic cells at 25 uM incubated for 24 hrs by annexin V and propidium iodide staining based flow cytometry analysis (reference value: 5.22%); format: functional
[17] = tested on: ASPC1; assay: Induction of apoptosis in human ASPC1 cells harboring […] assessed as late apoptotic cells at 25 uM incubated for 24 hrs by annexin V and propidium iodide staining based flow cytometry analysis (reference value: 6.96%); format: functional
[18] = tested on: ASPC1; assay: Induction of apoptosis in human ASPC1 cells harboring […] assessed as early apoptotic cells at 50 uM incubated for 24 hrs by annexin V and propidium iodide staining based flow cytometry analysis (reference value: 5.22%); format: functional
[19] = tested on: ASPC1; assay: Induction of apoptosis in human ASPC1 cells harboring […] assessed as late apoptotic cells at 50 uM incubated for 24 hrs by annexin V and propidium iodide staining based flow cytometry analysis (reference value: 6.96%); format: functional
[20] = tested on: AGS; assay: Induction of apoptosis in human AGS cells harboring […] assessed as early apoptotic cells at 25 uM incubated for 24 hrs by annexin V and propidium iodide staining based flow cytometry analysis (reference value: 4.05%); format: functional
[21] = tested on: AGS; assay: Induction of apoptosis in human AGS cells harboring […] assessed as late apoptotic cells at 25 uM incubated for 24 hrs by annexin V and propidium iodide staining based flow cytometry analysis (reference value: 7.74%); format: functional
[22] = tested on: AGS; assay: Induction of apoptosis in human AGS cells harboring […] assessed as early apoptotic cells at 50 uM incubated for 24 hrs by annexin V and propidium iodide staining based flow cytometry analysis (reference value: 4.05%); format: functional
[23] = tested on: AGS; assay: Induction of apoptosis in human AGS cells harboring […] assessed as late apoptotic cells at 50 uM incubated for 24 hrs by annexin V and propidium iodide staining based flow cytometry analysis (reference value: 7.74%); format: functional
[24] = tested on: ASPC1; assay: Antitumor activity against human ASPC1 cells xenografted in mouse assessed as inhibition of tumor growth at 10 mg/kg,ip administrated twice daily for 20 consecutive days relative to control; format: functional; settings: read-out: TGI
[25] = tested on: ASPC1; assay: Antitumor activity against human ASPC1 cells xenografted in mouse assessed as inhibition of tumor growth at 20 mg/kg,ip administrated twice daily for 20 consecutive days relative to control; format: functional; settings: read-out: TGI
[26] = Toxicity in mouse xenografted with human ASPC1 cells assessed as change in body weight at 10 mg/kg,ip administrated twice daily for 20 consecutive days; format: organism-based; settings: in vivo
[27] = Toxicity in mouse xenografted with human ASPC1 cells assessed as change in body weight at 20 mg/kg,ip administrated twice daily for 20 consecutive days; format: organism-based; settings: in vivo
[28] = Toxicity in mouse xenografted with human ASPC1 cells assessed as change in heart morphology at 10 mg/kg,ip administrated twice daily for 20 consecutive days by Hematoxylin-eosin staining based microscopic analysis; format: organism-based; settings: in vivo
[29] = Toxicity in mouse xenografted with human ASPC1 cells assessed as change in heart morphology at 20 mg/kg,ip administrated twice daily for 20 consecutive days by Hematoxylin-eosin staining based microscopic analysis; format: organism-based; settings: in vivo
[30] = Toxicity in mouse xenografted with human ASPC1 cells assessed as change in liver morphology at 10 mg/kg,ip administrated twice daily for 20 consecutive days by Hematoxylin-eosin staining based microscopic analysis; format: organism-based; settings: in vivo
[31] = Toxicity in mouse xenografted with human ASPC1 cells assessed as change in liver morphology at 20 mg/kg,ip administrated twice daily for 20 consecutive days by Hematoxylin-eosin staining based microscopic analysis; format: organism-based; settings: in vivo
[32] = Toxicity in mouse xenografted with human ASPC1 cells assessed as change in spleen morphology at 10 mg/kg,ip administrated twice daily for 20 consecutive days by Hematoxylin-eosin staining based microscopic analysis; format: organism-based; settings: in vivo
[33] = Toxicity in mouse xenografted with human ASPC1 cells assessed as change in spleen morphology at 20 mg/kg,ip administrated twice daily for 20 consecutive days by Hematoxylin-eosin staining based microscopic analysis; format: organism-based; settings: in vivo
[34] = Toxicity in mouse xenografted with human ASPC1 cells assessed as change in lung morphology at 10 mg/kg,ip administrated twice daily for 20 consecutive days by Hematoxylin-eosin staining based microscopic analysis; format: organism-based; settings: in vivo
[35] = Toxicity in mouse xenografted with human ASPC1 cells assessed as change in lung morphology at 20 mg/kg,ip administrated twice daily for 20 consecutive days by Hematoxylin-eosin staining based microscopic analysis; format: organism-based; settings: in vivo
[36] = Toxicity in mouse xenografted with human ASPC1 cells assessed as change in kidney morphology at 10 mg/kg,ip administrated twice daily for 20 consecutive days by Hematoxylin-eosin staining based microscopic analysis; format: organism-based; settings: in vivo
[37] = Toxicity in mouse xenografted with human ASPC1 cells assessed as change in kidney morphology at 20 mg/kg,ip administrated twice daily for 20 consecutive days by Hematoxylin-eosin staining based microscopic analysis; format: organism-based; settings: in vivo
[38] = Toxicity in mouse xenografted with human ASPC1 cells assessed as serum creatinine level at 10 mg/kg,ip administrated twice daily for 20 consecutive days (reference value: 28.2 +/- 2.1 umol/L); format: organism-based; settings: in vivo
[39] = Toxicity in mouse xenografted with human ASPC1 cells assessed as serum creatinine level at 20 mg/kg,ip administrated twice daily for 20 consecutive days (reference value: 28.2 +/- 2.1 umol/L); format: organism-based; settings: in vivo
[40] = Toxicity in mouse xenografted with human ASPC1 cells assessed as serum blood urea nitrogen level at 10 mg/kg,ip administrated twice daily for 20 consecutive days (reference value: 16.3 +/- 1.6 mmol/L); format: organism-based; settings: in vivo
[41] = Toxicity in mouse xenografted with human ASPC1 cells assessed as serum blood urea nitrogen level at 20 mg/kg,ip administrated twice daily for 20 consecutive days (reference value: 16.3 +/- 1.6 mmol/L); format: organism-based; settings: in vivo
[42] = Toxicity in mouse xenografted with human ASPC1 cells assessed as serum ratio of AST/ALT at 10 mg/kg,ip administrated twice daily for 20 consecutive days (reference value: 6.5 +/- 1.7); format: organism-based; settings: in vivo
[43] = Toxicity in mouse xenografted with human ASPC1 cells assessed as serum ratio of AST/ALT at 20 mg/kg,ip administrated twice daily for 20 consecutive days (reference value: 6.5 +/- 1.7); format: organism-based; settings: in vivo
[44] = Half life in Sprague-Dawley rat at 3 mg/kg,po measured upto 24 hrs by LC-MS/MS analysis; format: ADME, organism-based; settings: in vivo
[45] = AUC in Sprague-Dawley rat at 3 mg/kg,po measured upto 24 hrs by LC-MS/MS analysis; format: ADME, organism-based; parameters: time < 24 hrs, dose 3 mg/kg, route po; settings: in vivo

IC50 [1]: 0.6 nM
IC50 [2]: 0.3 nM
IC50 [3]: 332 nM
IC50 [4]: 1940 nM
IC50 [5]: 0.48 nM
IC50 [6]: 10.2 nM
half-life [7]: 18.4 min
AUC at 24 h [8]: 37.2 ng·h/mL
clearance [9]: 490 mL/min/kg
half-life at 150 µM [10]: 83.5 min
half-life at 150 µM [11]: 24.3 min
half-life at 150 µM [12]: 26.8 min
microsomal CLint at 150 µM [13]: 16.6 µL/min/mg
microsomal CLint at 150 µM [14]: 57 µL/min/mg
microsomal CLint at 150 µM [15]: 51.8 µL/min/mg
Structure (SMILES): [2H]C([2H])(Oc1nc(N2C[C@H]3CC[C@@H](C2)N3)c2cnc(-c3cc(O)cc4ccc(F)c(C#C)c34)c(F)c2n1)C12CCCN1CC(=C(F)F)C2 (stereo partly drawn)
Activity [16]: 9.17%
Activity [17]: 10%
Activity [18]: 11.5%
Activity [19]: 18.7%
Activity [20]: 11.4%
Activity [21]: 9.76%
Activity [22]: 13.1%
Activity [23]: 14%
inhibition in vivo at 10 mg/kg [24]: 55.3%
inhibition in vivo at 20 mg/kg [25]: 73.4%
Activity [26]: Non-Toxic
Activity [27]: Non-Toxic
Activity [28]: Non-Toxic
Activity [29]: Non-Toxic
Activity [30]: Non-Toxic
Activity [31]: Non-Toxic
Activity [32]: Non-Toxic
Activity [33]: Non-Toxic
Activity [34]: Non-Toxic
Activity [35]: Non-Toxic
Activity [36]: Non-Toxic
Activity [37]: Non-Toxic
Activity [38]: 25.9 µmol/L
Activity [39]: 22.2 µmol/L
Activity [40]: 13.5 mmol/L
Activity [41]: 14.1 mmol/L
Ratio [42]: 5
Ratio [43]: 5.7

IC50 [1]: 1.6 nM
IC50 [2]: 0.9 nM
IC50 [3]: 1190 nM
IC50 [4]: 1850 nM
IC50 [5]: 1.19 nM
IC50 [6]: 16.7 nM
half-life [44]: 22.9 min
AUC at 24 h [45]: 2.89 ng·h/mL
half-life [7]: 660 min
AUC at 24 h [8]: 102 ng·h/mL
clearance [9]: 168 mL/min/kg
half-life at 150 µM [10]: 92.4 min
half-life at 150 µM [11]: 30.5 min
half-life at 150 µM [12]: 85.6 min
microsomal CLint at 150 µM [13]: 15 µL/min/mg
microsomal CLint at 150 µM [14]: 45.4 µL/min/mg
microsomal CLint at 150 µM [15]: 16.2 µL/min/mg
Structure (SMILES): [2H]C([2H])(Oc1nc(N2C[C@H]3CC[C@@H](C2)N3)c2cnc(-c3cc(N)cc4ccc(F)c(C#C)c34)c(F)c2n1)C12CCCN1CC(=C(F)F)C2 (stereo partly drawn)
Activity [16]: 9.56%
Activity [17]: 10.8%
Activity [18]: 12.4%
Activity [19]: 11.8%
Activity [20]: 8.84%
Activity [21]: 11%
Activity [22]: 9.08%
Activity [23]: 13.7%
inhibition in vivo at 10 mg/kg [24]: 53.3%
inhibition in vivo at 20 mg/kg [25]: 71.3%
Activity [26]: Non-Toxic
Activity [27]: Non-Toxic
Activity [28]: Non-Toxic
Activity [29]: Non-Toxic
Activity [30]: Non-Toxic
Activity [31]: Non-Toxic
Activity [32]: Non-Toxic
Activity [33]: Non-Toxic
Activity [34]: Non-Toxic
Activity [35]: Non-Toxic
Activity [36]: Non-Toxic
Activity [37]: Non-Toxic
Activity [38]: 29.7 µmol/L
Activity [39]: 23.5 µmol/L
Activity [40]: 19.2 mmol/L
Activity [41]: 16.7 mmol/L
Ratio [42]: 4.5
Ratio [43]: 4.5
